The species entered for one test is Homo sapiens. The test is described as follows: Binding affinity to […] (unknown origin) assessed as change in melting temperature by thermal stabilization assay.
For test [1], the target named is T1, Poly [ADP-ribose] polymerase 1 (Homo sapiens, UniProt P09874).
The subject of test [2] is Poly [ADP-ribose] polymerase 14, ARTD8/PARP14 (Homo sapiens).
For test [3], the target named is Poly [ADP-ribose] polymerase 2 (Homo sapiens) (UniProt Q9UGN5).
Test [4] has as its target T1, Poly [ADP-ribose] polymerase 1. This is another data set of the same source.
Test [5] concerns the target T2, Protein mono-ADP-ribosyltransferase PARP3 (Homo sapiens) (UniProt Q9Y6F1).
T2 sequence (whole entry): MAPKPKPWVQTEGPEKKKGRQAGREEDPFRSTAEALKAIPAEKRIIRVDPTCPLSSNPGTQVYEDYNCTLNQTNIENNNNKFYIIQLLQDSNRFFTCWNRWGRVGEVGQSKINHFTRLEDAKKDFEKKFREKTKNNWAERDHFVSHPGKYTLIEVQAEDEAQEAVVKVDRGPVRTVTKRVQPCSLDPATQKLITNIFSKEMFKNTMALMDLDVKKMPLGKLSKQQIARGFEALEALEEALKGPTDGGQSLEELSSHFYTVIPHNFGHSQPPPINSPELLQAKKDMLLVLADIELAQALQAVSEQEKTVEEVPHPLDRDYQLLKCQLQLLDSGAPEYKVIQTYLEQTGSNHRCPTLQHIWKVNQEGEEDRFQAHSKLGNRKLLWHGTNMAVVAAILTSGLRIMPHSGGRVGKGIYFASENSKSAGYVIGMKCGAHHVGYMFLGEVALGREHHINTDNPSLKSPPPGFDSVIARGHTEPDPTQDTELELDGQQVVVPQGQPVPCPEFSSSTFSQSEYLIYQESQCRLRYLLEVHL

Chain of Poly [ADP-ribose] polymerase 2 (Homo sapiens) (Q9UGN5 whole entry): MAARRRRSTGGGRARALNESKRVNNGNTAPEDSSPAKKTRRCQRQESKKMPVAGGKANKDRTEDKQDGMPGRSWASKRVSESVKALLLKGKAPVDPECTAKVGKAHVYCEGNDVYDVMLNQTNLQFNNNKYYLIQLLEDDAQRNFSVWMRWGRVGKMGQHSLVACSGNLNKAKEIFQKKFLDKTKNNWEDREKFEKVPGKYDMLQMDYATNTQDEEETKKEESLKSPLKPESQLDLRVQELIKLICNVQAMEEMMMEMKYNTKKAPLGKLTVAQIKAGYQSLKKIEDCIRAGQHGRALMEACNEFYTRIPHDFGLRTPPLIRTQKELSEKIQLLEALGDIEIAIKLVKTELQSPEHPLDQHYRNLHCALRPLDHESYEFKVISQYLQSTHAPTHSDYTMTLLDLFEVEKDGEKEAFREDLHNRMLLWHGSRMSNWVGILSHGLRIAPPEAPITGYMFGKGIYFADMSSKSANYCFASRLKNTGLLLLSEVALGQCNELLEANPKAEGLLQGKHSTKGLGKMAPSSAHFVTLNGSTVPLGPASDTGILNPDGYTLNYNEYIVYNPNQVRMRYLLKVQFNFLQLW
T1 sequence (P09874 whole entry): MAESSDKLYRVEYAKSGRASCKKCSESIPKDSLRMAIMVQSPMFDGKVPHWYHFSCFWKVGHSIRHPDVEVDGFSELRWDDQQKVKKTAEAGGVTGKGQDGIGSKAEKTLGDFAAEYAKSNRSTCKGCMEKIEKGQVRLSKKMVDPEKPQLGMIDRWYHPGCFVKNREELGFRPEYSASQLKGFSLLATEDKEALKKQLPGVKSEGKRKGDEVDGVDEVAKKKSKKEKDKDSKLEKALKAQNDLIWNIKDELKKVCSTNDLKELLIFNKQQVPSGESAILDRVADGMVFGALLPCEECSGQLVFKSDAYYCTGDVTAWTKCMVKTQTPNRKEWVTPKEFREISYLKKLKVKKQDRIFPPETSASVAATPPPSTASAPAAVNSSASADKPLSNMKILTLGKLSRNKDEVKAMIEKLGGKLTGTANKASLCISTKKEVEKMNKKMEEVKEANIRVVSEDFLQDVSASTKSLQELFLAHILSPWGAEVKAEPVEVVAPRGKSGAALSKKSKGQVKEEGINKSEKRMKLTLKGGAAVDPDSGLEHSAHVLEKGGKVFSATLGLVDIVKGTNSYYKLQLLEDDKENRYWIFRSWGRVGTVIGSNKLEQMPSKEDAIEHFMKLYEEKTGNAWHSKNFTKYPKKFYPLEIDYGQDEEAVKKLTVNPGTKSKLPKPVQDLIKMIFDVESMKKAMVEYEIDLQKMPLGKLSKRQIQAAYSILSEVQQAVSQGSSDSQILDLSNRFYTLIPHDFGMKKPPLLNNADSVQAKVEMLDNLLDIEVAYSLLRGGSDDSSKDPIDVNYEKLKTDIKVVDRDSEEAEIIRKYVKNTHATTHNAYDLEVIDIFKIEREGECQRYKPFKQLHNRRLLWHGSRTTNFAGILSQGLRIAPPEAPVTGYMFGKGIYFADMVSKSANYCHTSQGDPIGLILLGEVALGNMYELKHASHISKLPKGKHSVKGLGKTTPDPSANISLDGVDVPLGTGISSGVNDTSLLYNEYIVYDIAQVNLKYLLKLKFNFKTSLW

Turning to `O=C(CCc1nc2ccccc2c(=O)[nH]1)N[C@@H]1CCc2ccccc21`, the ΔTm in the test filed under Homo sapiens was 0.8 °C; in test [2], 0.1 °C; in test [3], 1.92 °C; in test [4], 2.37 °C. The molecule also yielded an IC50 in test [1] of 0.78 µM.

As for `Cc1ccc([C@H](C)NC(=O)CCc2nc3ccccc3c(=O)[nH]2)cc1C`, the ΔTm in the test listed under Homo sapiens is 0.22 °C; in test [2] it was -0.22 °C; in test [3], -0.47 °C; in test [4], 0.22 °C; in test [5] it was 0.74 °C.

For `C[C@H](NC(=O)CCc1nc2ccccc2c(=O)[nH]1)c1cccc(Cl)c1`, the ΔTm is 0.29 °C in the test listed under Homo sapiens; -0.1 °C in test [2]; -0.48 °C in test [3]; 0.26 °C in test [4]; 0.2 °C in test [5].

As for `O=C(CCc1nc2ccccc2c(=O)[nH]1)N[C@H]1CCc2ccccc21`, the ΔTm came to 0.84 °C in the test listed under Homo sapiens, 0.18 °C in test [2], 1.39 °C in test [3] and 2.38 °C in test [4]. The IC50 in test [1] is 0.51 µM.

`C[C@H](NC(=O)CCc1nc2ccccc2c(=O)[nH]1)c1cccc(F)c1`: the ΔTm in the test filed under Homo sapiens was 0.13 °C; in test [2] it was -0.18 °C; in test [3], 0.06 °C; in test [4] it was 1 °C; in test [5], 0.75 °C.

For `Cc1ccc(C)c(C(C)NC(=O)CCc2nc3ccccc3c(=O)[nH]2)c1` (racemic), the ΔTm is 0.44 °C in the test listed under Homo sapiens; 0.57 °C in test [2]; 0.87 °C in test [3]; 2 °C in test [4]; 3.07 °C in test [5].

`O=C(CCc1nc2ccccc2c(=O)[nH]1)NCc1ccccc1O`: the ΔTm in the test filed under Homo sapiens was 0.7 °C; in test [2] it was -0.27 °C; in test [3], 1.3 °C; in test [4], 2.79 °C; in test [5], 6.31 °C.

For the molecule `O=C(CCc1nc2ccccc2c(=O)[nH]1)NCc1ccc([N+](=O)[O-])cc1`, the ΔTm in the test filed under Homo sapiens is 0.97 °C; in test [2], -0.11 °C; in test [3], 0.53 °C; in test [4], 4 °C; in test [5], 3.29 °C.

As to `C[C@H](NC(=O)NCc1nc2ccccc2c(=O)[nH]1)c1ccccc1`, the ΔTm in the test listed under Homo sapiens is 0.39 °C; in test [2] it was -0.77 °C; in test [3] it was 0.33 °C; in test [4], 0.88 °C; in test [5], 4.95 °C.

Consider `CC(C)(C)CC(NC(=O)CCc1nc2ccccc2c(=O)[nH]1)c1ccccc1` (racemic), for which the thermal shift (ΔTm) in the test listed under Homo sapiens came to 0.44 °C; in test [2], 0.16 °C; in test [3], 0.74 °C; in test [4], 0.9 °C; in test [5], 5.96 °C.

With `C[C@H](NC(=O)/C=C/c1nc2ccccc2c(=O)[nH]1)c1ccccc1`, the shift in melting temperature (ΔTm) is 0.42 °C in the test listed under Homo sapiens; -0.07 °C in test [2]; -0.67 °C in test [3]; 1.22 °C in test [4]; 0.22 °C in test [5].

Turning to `C[C@H](NC(=O)CCCc1nc2ccccc2c(=O)[nH]1)c1ccccc1`, the thermal shift (ΔTm) in the test filed under Homo sapiens was 0.52 °C; in test [2], -0.21 °C; in test [3], 0.37 °C; in test [4] it was 1.51 °C; in test [5] it was 4.58 °C.

`C[C@@H](NC(=O)CCCc1nc2ccccc2c(=O)[nH]1)c1ccccc1`: the ΔTm is 1.37 °C in the test listed under Homo sapiens; -0.05 °C in test [2]; 0.21 °C in test [3]; 1.56 °C in test [4]; 4.27 °C in test [5].

The values above are taken from ChEMBL document CHEMBL3091384, “Chemical probes to study ADP-ribosylation: synthesis and biochemical evaluation of inhibitors of the human ADP-ribosyltransferase ARTD3/PARP3” (J Med Chem, 2013).
